Results taken from patent US6872562B2, “Herbicide resistant dinitrogen fixing bacteria and method of use” (priority 2001, dated 2005).

Experiments:
[1] = system: TV5866RR soybean inoculated with B. japonicum (USDA 110); assay: Growth cabinet time course of nodule acetylene reduction activity (ARA); format: in vivo, soybean (Glycine max); conditions: 1.68 kg ha^−1 at 5, 12, and 19 DAE
Excerpt: The time course of nodule activity from 14 to 28 DAE was followed in a series of four runs of an experiment in a growth cabinet. Soybean seeds were sown in N-free potting media in pots constructed of 15-cm diameter polyvinyl chloride pipe. These pipes allow nondestructive measurement of nodule activity by the acetylene reduction assay as described by Purcell et al. (1997). Seeds were inoculated with B. japonicum (USDA 110), and pots were supplied with N-free nutrients. […] Acetylene reduction activity (ARA) was measured at 14, 21, and 28 DAE by passing a 9:1 air to acetylene mixture through the pots at 0.5 L min^−1. After 8 min., 1-mL aliquots of the effluent gas stream were collected from each pot and analyzed for ethylene by gas chromatography. Nitrogenase activity for glyphosate-treated and control plants was similar at 14 DAE, except for Run 4 when ARA was lower for glyphosate-treated plants (Table 5). ARA was 12 to 20% lower for glyphosate-treated plants at 21 DAE in three of the four runs. By 28 DAE, ARA was lower in glyphosate-treated plants only in Run 2 and was greater than control plants in Run 1.

[2] = system: GR soybean cultivars A4501RR, A5901RR, DK5961RR, H5164RR, TV5866RR; assay: Greenhouse Example 2: sensitivity of five GR soybean cultivars to glyphosate; format: in vivo, soybean (Glycine max); conditions: 40 DAE
Excerpt: The other plants were not treated and served as controls. […] The experiment was a completely random design with six replications.

[3] = system: B. japonicum (strain USDA 110); assay: Growth of B. japonicum in defined liquid media with glyphosate up to 10 mM (Example 6); format: cell-based; conditions: Bradyrhizobium japonicum, 216 h, read-out: Growth inhibition compared to the control without glyphosate
Description: The defined media consists of 25 mM arabinose as the carbon source, 15 mM (NH4)2SO4, 0.7 mM MgSO4, 0.4 mM CaCl2, 20 mM NaCl, 2.5 mM K2HPO4, and 40 mM MOPS (3-[N-morpholino]propane-sulfonic acid), at pH 6.8, plus the appropriate micronutrients. […] These colonies were removed and stored in frozen culture in 50% sterile glycerol.

[4] = system: selected B. japonicum cultures (from USDA 110); assay: Growth in Tulley's media with 5 mM glyphosate, colonies selected in Example 6 (Example 7); format: cell-based, Bradyrhizobium japonicum
Description: Duplicate cultures were evaluated from each of the original colony selections. […] The cultures were allowed to grow for 14 days, and then the OD of each culture was measured.

[5] = system: B. japonicum (strain USDA 110); assay: B. japonicum growth in culture with increasing glyphosate (Example 12); format: cell-based; conditions: Bradyrhizobium japonicum, 168 h; read-out: Growth inhibition relative to the control
Description: 0.1, 1, 3, and 5 mM. […] At concentrations as low as 0.01 mM, B. japonicum growth was inhibited 18% relative to the control (FIG. 4). At a concentration of 0.1 mM, growth was inhibited approximately 40% relative to the control.

[6] = system: glyphosate resistant soybean cultivar DK5961RR inoculated with B. japonicum (USDA 110); assay: Seed-imbibed glyphosate: nodulation, greenhouse experiment; format: in vivo
Description: (§1) Pots 15-cm in diameter, with a total volume of 1.3 L were filled with a peat based potting mix that was saturated with a nitrogen-free nutrient solution. Six seeds from a particular glyphosate-concentration seed soak were planted in each pot and 1 ml of B. japonicum (USDA 110) containing approximately 4.24×10^6 cells was applied evenly across the surface and washed into the potting mix with 250 ml of minus N nutrients. Plants were thinned to one per pot after emergence. Day and night temperatures were approximately 30 and 24 C, respectively, and natural illumination was supplemented with 1000 W metal-halide lamps for a day length of 16 hours. […] Root nodules were scanned and images were used to determine nodule number and size as influenced by glyphosate treatment. The […] was repeated in a controlled environmental growth chamber with six replications. Growth chamber temperature was a constant 25 C and light and dark periods were 16 and 8 hours, respectively. Plants were harvested at 15 days after planting and sectioned as previously described (Example 1).

[7] = system: glyphosate resistant soybean cultivar DK5961RR inoculated with B. japonicum (USDA 110); assay: Seed-imbibed glyphosate: nodulation, growth chamber experiment; format: in vivo; conditions: glyphosate concentrations greater than 12 mM
Description: as §1

Strains USDA 123 and 138 = conditions: 5 mM concentration; cited from earlier work

O=C(O)CNCP(=O)(O)O [glyphosate, N-(phosphonomethyl)glycine]
Acetylene reduction activity (mean ± SE) ([1]; Run 1, 14 DAE): 33 ± 2 μmol C2H4 plant^−1 h^−1 | Acetylene reduction activity (mean ± SE) ([1]; Run 1, 21 DAE): 45 ± 3 μmol C2H4 plant^−1 h^−1 | Acetylene reduction activity (mean ± SE) ([1]; Run 1, 28 DAE): 76 ± 7 μmol C2H4 plant^−1 h^−1 | Acetylene reduction activity (mean ± SE) ([1]; Run 2, 14 DAE): 23 ± 3 μmol C2H4 plant^−1 h^−1 | Acetylene reduction activity (mean ± SE) ([1]; Run 2, 21 DAE): 53 ± 6 μmol C2H4 plant^−1 h^−1 | Acetylene reduction activity (mean ± SE) ([1]; Run 2, 28 DAE): 70 ± 4 μmol C2H4 plant^−1 h^−1 | Acetylene reduction activity (mean ± SE) ([1]; Run 3, 14 DAE): 57 ± 13 μmol C2H4 plant^−1 h^−1 | Acetylene reduction activity (mean ± SE) ([1]; Run 3, 21 DAE): 75 ± 9 μmol C2H4 plant^−1 h^−1 | Acetylene reduction activity (mean ± SE) ([1]; Run 3, 28 DAE): 115 ± 13 μmol C2H4 plant^−1 h^−1 | Acetylene reduction activity (mean ± SE) ([1]; Run 4, 14 DAE): 28 ± 4 μmol C2H4 plant^−1 h^−1 | Acetylene reduction activity (mean ± SE) ([1]; Run 4, 21 DAE): 56 ± 3 μmol C2H4 plant^−1 h^−1 | Acetylene reduction activity (mean ± SE) ([1]; Run 4, 28 DAE): 107 ± 14 μmol C2H4 plant^−1 h^−1 | Shoot mass effect [2]: decreased | Biomass Nodule ([2]; A4501RR, E + L treatment): 0.47 g plant^−1 | Biomass Root ([2]; A4501RR, E + L treatment): 1.22 g plant^−1 | Biomass Shoot ([2]; A4501RR, E + L treatment): 4.55 g plant^−1 | Nitrogen Root ([2]; A4501RR, E + L treatment): 45 mg plant^−1 | Nitrogen Shoot ([2]; A4501RR, E + L treatment): 185 mg plant^−1 | Nodule biomass effect ([2]; A5901RR): increased | Biomass Nodule ([2]; A5901RR, E + L treatment): 0.54 g plant^−1 | Biomass Root ([2]; A5901RR, E + L treatment): 0.93 g plant^−1 | Biomass Shoot ([2]; A5901RR, E + L treatment): 4.03 g plant^−1 | Nitrogen Root ([2]; A5901RR, E + L treatment): 45 mg plant^−1 | Nitrogen Shoot ([2]; A5901RR, E + L treatment): 163 mg plant^−1 | Nodule mass effect ([2]; DK5961RR): decreased | Biomass Nodule ([2]; DK5961RR, E + L treatment): 0.40 g plant^−1 | Biomass Root ([2]; DK5961RR, E + L treatment): 0.74 g plant^−1 | Biomass Shoot ([2]; DK5961RR, E + L treatment): 3.41 g plant^−1 | Nitrogen Root ([2]; DK5961RR, E + L treatment): 31 mg plant^−1 | Nitrogen Shoot ([2]; DK5961RR, E + L treatment): 142 mg plant^−1 | Biomass Nodule ([2]; H5164RR, E + L treatment): 0.47 g plant^−1 | Biomass Root ([2]; H5164RR, E + L treatment): 1.18 g plant^−1 | Biomass Shoot ([2]; H5164RR, E + L treatment): 4.36 g plant^−1 | Nitrogen Root ([2]; H5164RR, E + L treatment): 46 mg plant^−1 | Nitrogen Shoot ([2]; H5164RR, E + L treatment): 170 mg plant^−1 | Biomass Root ([2]; TV5866RR, E + L treatment): 0.71 g plant^−1 | Biomass Shoot ([2]; TV5866RR, E + L treatment): 3.07 g plant^−1 | Nitrogen Root ([2]; TV5866RR, E + L treatment): 35 mg plant^−1 | Nitrogen Shoot ([2]; TV5866RR, E + L treatment): 131 mg plant^−1 | Biomass Nodule ([2]; TV5866RR, E + L: 1.68 kg ai ha^−1 at 5, 10, 18, 25, and 32 DAE): 0.34 g plant^−1 | Measured biomass or nitrogen parameters ([2]; cultivars A5901RR or H5164RR): None of the measured biomass or nitrogen parameters were decreased | inhibition at 10000 µM [3]: ~90% | Growth, % of wild type USDA 110 in the absence of glyphosate ([4]; 45 selected colonies averaged, liquid culture, 14 days): 27% | OD600 ([4]; Selected cultures, averaged over all strains, after 14 days): 0.36 b^ | inhibition at 10 µM [5]: 18% | inhibition at 100 µM [5]: ~40% | Reduction in nodule number compared to the control ([6]; 3.1 mM glyphosate seed treatment, 10 DAP): ~30% | Nodule number ([6]; glyphosate concentrations greater than 3.1 mM): increased to values similar to that of plants from the control treatment | Average diameter of individual nodules ([6]; increasing glyphosate concentrations, 17 DAP): tended to decrease | Nodule number [7]: progressively decreased | Inhibition (Strains USDA 123 and 138): 100%
